{"source": "ChEMBL document CHEMBL3045330", "about": "“Antimicrobial and anticancer effects of some 2-(substitutedsulfanyl)-N-(5-methyl-isoxazol-3-yl)acetamide derivatives” (Med Chem Res, 2013)", "key": {"Staphylococcus aureus": {"test_system": "Staphylococcus aureus", "experiment": "Antibacterial activity against Staphylococcus aureus NRRL B-767 assessed as growth inhibition by CLSI broth microdilution method", "format": "functional"}, "Enterococcus faecalis": {"test_system": "Enterococcus faecalis", "experiment": "Antibacterial activity against Enterococcus faecalis ATCC 29212 assessed as growth inhibition by CLSI broth microdilution method", "format": "functional"}, "Candida albicans": {"test_system": "Candida albicans", "experiment": "Antifungal activity against Candida albicans assessed as growth inhibition by CLSI broth microdilution method", "format": "functional"}, "HT-29 [1]": {"test_system": "HT-29", "experiment": "Inhibition of nuclear DNA synthesis in Homo sapiens (human) HT-29 cells assessed as decrease in incorporation of bromo deoxyuridine during S phase of cell cycle after 24 to 48 hr by colorimetric method", "format": "cell-based"}, "C6 [2]": {"test_system": "C6", "experiment": "Cytotoxicity against Rattus norvegicus (rat) C6 cells assessed as cell viability after 24 hr by MTT assay", "format": "functional, cell-based", "details": "C6, 24 h"}, "Pseudomonas aeruginosa": {"test_system": "Pseudomonas aeruginosa", "experiment": "Antibacterial activity against Pseudomonas aeruginosa ATCC 254992 assessed as growth inhibition by CLSI broth microdilution method", "format": "functional"}, "Escherichia coli": {"test_system": "Escherichia coli", "experiment": "Antibacterial activity against Escherichia coli ATCC 25922 assessed as growth inhibition by CLSI broth microdilution method", "format": "functional"}, "HT-29 [3]": {"test_system": "HT-29", "experiment": "Inhibition of nuclear DNA synthesis in Homo sapiens (human) HT-29 cells assessed as decrease in incorporation of bromo deoxyuridine during S phase of cell cycle at 0.8 to 3.2 uM by colorimetric method", "format": "cell-based", "details": "TDE = time-dependent effect"}, "C6 [4]": {"test_system": "C6", "experiment": "Inhibition of nuclear DNA synthesis in Rattus norvegicus (rat) C6 cells assessed as decrease in incorporation of bromo deoxyuridine during S phase of cell cycle after 24 to 48 hr by colorimetric method", "format": "cell-based"}, "C6 [5]": {"test_system": "C6", "experiment": "Inhibition of nuclear DNA synthesis in Rattus norvegicus (rat) C6 cells assessed as decrease in incorporation of bromo deoxyuridine during S phase of cell cycle at 0.8 to 3.2 uM by colorimetric method", "format": "cell-based", "details": "TDE = time-dependent effect"}, "HT-29 [6]": {"test_system": "HT-29", "experiment": "Cytotoxicity against Homo sapiens (human) HT-29 cells assessed as cell viability after 24 hr by MTT assay", "format": "functional, cell-based", "details": "HT-29, 24 h"}, "C6 [7]": {"test_system": "C6", "experiment": "Inhibition of nuclear DNA synthesis in Rattus norvegicus (rat) C6 cells assessed as decrease in incorporation of bromo deoxyuridine during S phase of cell cycle at 3.2 uM after 48 hr by colorimetric method relative to untreated control", "format": "cell-based"}, "HT-29 [8]": {"test_system": "HT-29", "experiment": "Inhibition of nuclear DNA synthesis in Homo sapiens (human) HT-29 cells assessed as decrease in incorporation of bromo deoxyuridine during S phase of cell cycle at 3.2 uM after 48 hr by colorimetric method relative to untreated control", "format": "cell-based"}, "C6 [9]": {"test_system": "C6", "experiment": "Inhibition of nuclear DNA synthesis in Rattus norvegicus (rat) C6 cells assessed as decrease in incorporation of bromo deoxyuridine during S phase of cell cycle at 3.2 uM after 24 hr by colorimetric method relative to untreated control", "format": "cell-based"}}, "data": [{"smiles": "Cc1cc(NC(=O)CSc2nc3ccccc3s2)no1", "values": [{"measurement": "MIC", "setting": "Staphylococcus aureus", "value": 200, "unit": "µg/mL"}, {"measurement": "MIC", "setting": "Enterococcus faecalis", "value": 400, "unit": "µg/mL"}, {"measurement": "MIC", "setting": "Candida albicans", "value": 200, "unit": "µg/mL"}, {"measurement": "inhibition", "setting": "HT-29 [1]", "value": "Dose-dependent effect"}, {"measurement": "IC50", "setting": "C6 [2]", "value": 210, "unit": "nM"}, {"measurement": "MIC", "setting": "Pseudomonas aeruginosa", "value": 200, "unit": "µg/mL"}, {"measurement": "MIC", "setting": "Escherichia coli", "value": 400, "unit": "µg/mL"}, {"measurement": "inhibition", "setting": "HT-29 [3]", "value": "tde"}, {"measurement": "inhibition", "setting": "C6 [4]", "value": "Dose-dependent effect"}, {"measurement": "inhibition", "setting": "C6 [5]", "value": "tde"}, {"measurement": "IC50", "setting": "HT-29 [6]", "value": 400, "unit": "nM"}]}, {"smiles": "CC(=O)N1CCN(c2ccc(OCC3COC(Cn4ccnc4)(c4ccc(Cl)cc4Cl)O3)cc2)CC1", "note": "(stereo not given) [KETOCONAZOLE]", "values": [{"measurement": "MIC", "setting": "Candida albicans", "value": 100, "unit": "µg/mL"}]}, {"smiles": "Cc1cc(NC(=O)CSc2nncn2C)no1", "values": [{"measurement": "MIC", "setting": "Staphylococcus aureus", "value": 200, "unit": "µg/mL"}, {"measurement": "MIC", "setting": "Enterococcus faecalis", "value": 400, "unit": "µg/mL"}, {"measurement": "MIC", "setting": "Candida albicans", "value": 100, "unit": "µg/mL"}, {"measurement": "IC50", "setting": "C6 [2]", "value": 1470, "unit": "nM"}, {"measurement": "MIC", "setting": "Pseudomonas aeruginosa", "value": 100, "unit": "µg/mL"}, {"measurement": "MIC", "setting": "Escherichia coli", "value": 400, "unit": "µg/mL"}, {"measurement": "IC50", "setting": "HT-29 [6]", "value": 1020, "unit": "nM"}]}, {"smiles": "Cc1cc(NC(=O)CSc2nnnn2-c2ccccc2)no1", "values": [{"measurement": "MIC", "setting": "Staphylococcus aureus", "value": 200, "unit": "µg/mL"}, {"measurement": "MIC", "setting": "Enterococcus faecalis", "value": 400, "unit": "µg/mL"}, {"measurement": "MIC", "setting": "Candida albicans", "value": 100, "unit": "µg/mL"}, {"measurement": "IC50", "setting": "C6 [2]", "value": 640, "unit": "nM"}, {"measurement": "MIC", "setting": "Pseudomonas aeruginosa", "value": 100, "unit": "µg/mL"}, {"measurement": "MIC", "setting": "Escherichia coli", "value": 400, "unit": "µg/mL"}, {"measurement": "IC50", "setting": "HT-29 [6]", "value": 740, "unit": "nM"}]}, {"smiles": "Cc1cc(NC(=O)CSc2nc3ccccc3o2)no1", "values": [{"measurement": "MIC", "setting": "Staphylococcus aureus", "value": 200, "unit": "µg/mL"}, {"measurement": "MIC", "setting": "Enterococcus faecalis", "value": 400, "unit": "µg/mL"}, {"measurement": "MIC", "setting": "Candida albicans", "value": 200, "unit": "µg/mL"}, {"measurement": "inhibition", "setting": "HT-29 [1]", "value": "Dose-dependent effect"}, {"measurement": "inhibition", "setting": "C6 [7]", "value": 70, "unit": "%"}, {"measurement": "IC50", "setting": "C6 [2]", "value": 440, "unit": "nM"}, {"measurement": "MIC", "setting": "Pseudomonas aeruginosa", "value": 200, "unit": "µg/mL"}, {"measurement": "inhibition", "setting": "HT-29 [8]", "value": 80, "unit": "%"}, {"measurement": "MIC", "setting": "Escherichia coli", "value": 400, "unit": "µg/mL"}, {"measurement": "inhibition", "setting": "C6 [9]", "value": "> 50", "unit": "%"}, {"measurement": "inhibition", "setting": "HT-29 [3]", "value": "tde"}, {"measurement": "inhibition", "setting": "C6 [4]", "value": "Dose-dependent effect"}, {"measurement": "inhibition", "setting": "C6 [5]", "value": "tde"}, {"measurement": "IC50", "setting": "HT-29 [6]", "value": 220, "unit": "nM"}]}, {"smiles": "Cc1cc(NC(=O)CSc2nc[nH]n2)no1", "values": [{"measurement": "MIC", "setting": "Staphylococcus aureus", "value": 200, "unit": "µg/mL"}, {"measurement": "MIC", "setting": "Enterococcus faecalis", "value": 400, "unit": "µg/mL"}, {"measurement": "MIC", "setting": "Candida albicans", "value": 100, "unit": "µg/mL"}, {"measurement": "IC50", "setting": "C6 [2]", "value": 3190, "unit": "nM"}, {"measurement": "MIC", "setting": "Pseudomonas aeruginosa", "value": 100, "unit": "µg/mL"}, {"measurement": "MIC", "setting": "Escherichia coli", "value": 400, "unit": "µg/mL"}, {"measurement": "IC50", "setting": "HT-29 [6]", "value": 1130, "unit": "nM"}]}, {"smiles": "Cc1cc(NC(=O)CSc2nnc(C)s2)no1", "values": [{"measurement": "MIC", "setting": "Staphylococcus aureus", "value": 200, "unit": "µg/mL"}, {"measurement": "MIC", "setting": "Enterococcus faecalis", "value": 400, "unit": "µg/mL"}, {"measurement": "MIC", "setting": "Candida albicans", "value": 100, "unit": "µg/mL"}, {"measurement": "IC50", "setting": "C6 [2]", "value": 580, "unit": "nM"}, {"measurement": "MIC", "setting": "Pseudomonas aeruginosa", "value": 200, "unit": "µg/mL"}, {"measurement": "MIC", "setting": "Escherichia coli", "value": 400, "unit": "µg/mL"}, {"measurement": "IC50", "setting": "HT-29 [6]", "value": 670, "unit": "nM"}]}, {"smiles": "Cc1cc(NC(=O)CSc2ccccc2)no1", "values": [{"measurement": "MIC", "setting": "Staphylococcus aureus", "value": 200, "unit": "µg/mL"}, {"measurement": "MIC", "setting": "Enterococcus faecalis", "value": 400, "unit": "µg/mL"}, {"measurement": "MIC", "setting": "Candida albicans", "value": 200, "unit": "µg/mL"}, {"measurement": "MIC", "setting": "Pseudomonas aeruginosa", "value": 200, "unit": "µg/mL"}, {"measurement": "MIC", "setting": "Escherichia coli", "value": 400, "unit": "µg/mL"}]}, {"smiles": "Cc1cc(NC(=O)CSc2nccn2C)no1", "values": [{"measurement": "MIC", "setting": "Staphylococcus aureus", "value": 200, "unit": "µg/mL"}, {"measurement": "MIC", "setting": "Enterococcus faecalis", "value": 400, "unit": "µg/mL"}, {"measurement": "MIC", "setting": "Candida albicans", "value": 100, "unit": "µg/mL"}, {"measurement": "IC50", "setting": "C6 [2]", "value": 1410, "unit": "nM"}, {"measurement": "MIC", "setting": "Pseudomonas aeruginosa", "value": 200, "unit": "µg/mL"}, {"measurement": "MIC", "setting": "Escherichia coli", "value": 400, "unit": "µg/mL"}, {"measurement": "IC50", "setting": "HT-29 [6]", "value": 1130, "unit": "nM"}]}, {"smiles": "Cc1cc(NC(=O)CSc2nnnn2C)no1", "values": [{"measurement": "MIC", "setting": "Staphylococcus aureus", "value": 200, "unit": "µg/mL"}, {"measurement": "MIC", "setting": "Enterococcus faecalis", "value": 400, "unit": "µg/mL"}, {"measurement": "MIC", "setting": "Candida albicans", "value": 100, "unit": "µg/mL"}, {"measurement": "IC50", "setting": "C6 [2]", "value": 1210, "unit": "nM"}, {"measurement": "MIC", "setting": "Pseudomonas aeruginosa", "value": 100, "unit": "µg/mL"}, {"measurement": "MIC", "setting": "Escherichia coli", "value": 400, "unit": "µg/mL"}]}, {"smiles": "O=C(N[C@H](CO)[C@H](O)c1ccc([N+](=O)[O-])cc1)C(Cl)Cl", "note": "[CHLORAMPHENICOL]", "values": [{"measurement": "MIC", "setting": "Staphylococcus aureus", "value": 50, "unit": "µg/mL"}, {"measurement": "MIC", "setting": "Enterococcus faecalis", "value": 100, "unit": "µg/mL"}, {"measurement": "MIC", "setting": "Pseudomonas aeruginosa", "value": 50, "unit": "µg/mL"}, {"measurement": "MIC", "setting": "Escherichia coli", "value": 100, "unit": "µg/mL"}]}, {"smiles": "Cc1cc(NC(=O)CSc2nc3ccccc3[nH]2)no1", "values": [{"measurement": "MIC", "setting": "Staphylococcus aureus", "value": 200, "unit": "µg/mL"}, {"measurement": "MIC", "setting": "Enterococcus faecalis", "value": 400, "unit": "µg/mL"}, {"measurement": "MIC", "setting": "Candida albicans", "value": 200, "unit": "µg/mL"}, {"measurement": "inhibition", "setting": "HT-29 [1]", "value": "Dose-dependent effect"}, {"measurement": "inhibition", "setting": "C6 [7]", "value": 70, "unit": "%"}, {"measurement": "IC50", "setting": "C6 [2]", "value": 100, "unit": "nM"}, {"measurement": "MIC", "setting": "Pseudomonas aeruginosa", "value": 200, "unit": "µg/mL"}, {"measurement": "inhibition", "setting": "HT-29 [8]", "value": 80, "unit": "%"}, {"measurement": "MIC", "setting": "Escherichia coli", "value": 400, "unit": "µg/mL"}, {"measurement": "inhibition", "setting": "C6 [9]", "value": "> 50", "unit": "%"}, {"measurement": "inhibition", "setting": "HT-29 [3]", "value": "tde"}, {"measurement": "inhibition", "setting": "C6 [4]", "value": "Dose-dependent effect"}, {"measurement": "inhibition", "setting": "C6 [5]", "value": "tde"}, {"measurement": "IC50", "setting": "HT-29 [6]", "value": 90, "unit": "nM"}]}]}
